These results are taken from US8362012B2, “Benzoxazine benzimidazole derivative, a pharmaceutical composition comprising the same, and a use thereof” (Daewoong Pharmaceutical Co., Ltd., priority 2008, dated 2013).

For one experiment, the system named is ICR male mice. Nature of the experiment: Phenyl-p-quinone (PBQ)-induced writhing experiment using mice. The experiment is classed as in vivo. The note with it: orally administered, PBQ (0.02%) intraperitoneally after 1 hour; for I.A. (inhibitory activity), % inhibition rate of writhing: writhing counted for 10 min. As to the method:
In order to evaluate the effect on pain of the compounds prepared in the Examples, behaviors such as twisting or writhing of body resulted from pain were verified by the phenyl-p-quinone (PBQ)-induced writhing experiment using mice. 5 week-old ICR male mice were used as experimental animals and PBQ (0.02%), as a chemical stimulator. The suspensions of 20 mg of the compounds of the present invention and an excipient such as Na—CMC (sodium carboxymethyl cellulose) in 10 mL of saline were used as test compounds. The test compounds were orally administered to the mice and after 1 hour, PBQ was intraperitoneally administrated in an amount of 10 mL per kg of body weight. Also, as a control group, equivalent amounts of BCTC were administered. The writhing number of each mouse was measured for 10 min starting from 5 min after the administration, and the analgesic effect was verified by counting the reduced number compared to the control group administered with only excipient and calculating the % inhibitory rate according to the following Formula 2. % inhibition rate=(writhing # of control group−writhing # of test group)/writhing # of control group×100 [Formula 2]
(In writhing tests, fewer writhes than in controls are read as antinociception.)

The target of experiment [1] is T1, human vanilloid-1 (hVR-1) in hVR-1-HEK293 cell line (Homo sapiens, UniProt Q8NER1).
T1 construct: expressed in transfected cells; host or cells: HEK293 Tet-on strain, doxycycline-induced
T1 sequence (Q8NER1 whole entry): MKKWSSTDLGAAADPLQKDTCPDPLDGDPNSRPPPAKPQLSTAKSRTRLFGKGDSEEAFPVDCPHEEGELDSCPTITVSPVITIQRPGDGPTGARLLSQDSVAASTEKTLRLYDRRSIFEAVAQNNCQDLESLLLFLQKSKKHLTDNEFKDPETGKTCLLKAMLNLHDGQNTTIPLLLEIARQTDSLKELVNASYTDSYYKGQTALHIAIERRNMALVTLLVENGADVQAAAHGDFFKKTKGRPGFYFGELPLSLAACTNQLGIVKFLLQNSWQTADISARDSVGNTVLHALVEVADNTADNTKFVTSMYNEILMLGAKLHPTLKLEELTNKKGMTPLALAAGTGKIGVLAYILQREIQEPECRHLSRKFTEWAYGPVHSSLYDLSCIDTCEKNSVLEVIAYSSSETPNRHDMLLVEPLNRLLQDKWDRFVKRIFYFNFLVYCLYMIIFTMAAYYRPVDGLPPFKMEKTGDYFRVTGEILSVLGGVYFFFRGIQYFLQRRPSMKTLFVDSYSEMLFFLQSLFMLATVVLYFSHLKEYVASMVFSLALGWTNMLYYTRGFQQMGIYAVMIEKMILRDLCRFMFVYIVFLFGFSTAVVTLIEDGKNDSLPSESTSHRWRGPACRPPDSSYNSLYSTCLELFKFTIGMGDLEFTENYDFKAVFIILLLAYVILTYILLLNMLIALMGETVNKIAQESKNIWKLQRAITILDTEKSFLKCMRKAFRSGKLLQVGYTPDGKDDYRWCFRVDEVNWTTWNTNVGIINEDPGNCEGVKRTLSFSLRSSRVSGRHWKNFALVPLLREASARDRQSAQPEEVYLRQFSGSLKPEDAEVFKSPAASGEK
In words: Inhibitory effect on calcium influx via a vanilloid receptor (capsaicin-stimulated, Fluo-3/AM). The experiment is classed as cell-based. The note with it: hVR-1-HEK293 cells, 1 μM of capsaicin, compounds 0.015˜2000 nM; read-out: I.A. (inhibitory activity), IC50 on intracellular calcium influx. How it is done: The cell line can modulate the expression of VR-1, depending on whether doxycycline, a derivative of tetracycline, is present or not. […] Specifically, hVR-1-HEK293 cells were cultured in a T75 flask to about 80% confluency, separated from the flask by treating with trypsin solution, and then collected by centrifugation. The cells were suspended in a medium containing 1 μg/mL of doxycycline, and the resulting suspension was diluted to a concentration of 2˜4×10^5 cells/mL […], of the cell suspension was placed in each well of a 96-well black plate. The cells were cultured in 5% CO2 incubator at 37° C. for 2 days, and used for the following procedure. […] The cells prepared in 1) above were cultured at 37° C. for 90 min in a solution containing Fluo-3/AM, a fluorescent dye, as a calcium indicator so that the fluorescent dye was permeated into the cells. […] In order to stimulate calcium influx through a vanilloid receptor, the cells were treated with 1 μM of capsaicin. […] The obtained data were input to the Hill equation represented by the following formula I and the values were analyzed: Intracellular calcium influx= [(fluorescent intensity of experimental group−fluorescent intensity of background)/(fluorescent intensity of positive control−fluorescent intensity of background)]*100 [Formula I] The inhibitory activities were evaluated from the obtained intracellular calcium influx values according to the following criteria.
On the technique in general: A change in cytosolic calcium serves as a functional read-out for many receptors and channels.

Usually IC50 stands for the concentration needed to halve the response being measured.

Regarding `FC(F)(F)c1ccc2nc(-c3cccc4c3OCCN4c3ncc(Cl)cc3Cl)[nH]c2c1` [Example 18, 4-(3,5-dichloro-pyridin-2-yl)-8-(6-trifluoromethyl-1H-benzimidazol-2-yl)-3,4-dihydro-2H-benzo[1,4]oxazine], in the experiment with ICR male mice, the “I.A. (inhibitory activity), % inhibition rate of writhing” value is listed as “+ (<20%)”. For the same compound, the IC50 in experiment [1] lay in the range of 20 to 100 nM.

On to `FC(F)(F)c1ccc2nc(-c3cccc4c3OCCN4c3ccc(Br)cn3)[nH]c2c1` [Example 19, 4-(5-bromo-pyridin-2-yl)-8-(6-trifluoromethyl-1H-benzimidazol-2-yl)-3,4-dihydro-2H-benzo[1,4]oxazine], for which the “I.A. (inhibitory activity), % inhibition rate of writhing” value with ICR male mice was “++ (20˜50%)”. In addition, the IC50 in experiment [1] is 20 to 100 nM.

For `FC(F)(F)c1ccc2nc(-c3cccc4c3OCCN4c3ccc(Cl)cn3)[nH]c2c1` [Example 20, 4-(5-chloro-pyridin-2-yl)-8-(6-trifluoromethyl-1H-benzimidazol-2-yl)-3,4-dihydro-2H-benzo[1,4]oxazine], the “I.A. (inhibitory activity), % inhibition rate of writhing” value in the experiment on ICR male mice is recorded as “++ (20˜50%)”. In addition, the IC50 in experiment [1] was in the range of 20 to 100 nM.

With `Cc1ccc(N2CCOc3c(-c4nc5ccc(C(F)(F)F)cc5[nH]4)cccc32)nc1` [Example 25, 4-(5-methyl-pyridin-2-yl)-8-(6-trifluoromethyl-1H-benzimidazol-2-yl)-3,4-dihydro-2H-benzo[1,4]oxazine], the “I.A. (inhibitory activity), % inhibition rate of writhing” value in the experiment on ICR male mice is “+ (<20%)”. The IC50 in experiment [1] is 20 to 100 nM.

In the case of `C=Cc1ccc(N2c3cccc(-c4nc5c(C(F)(F)F)cc(C(F)(F)F)cc5[nH]4)c3OC[C@@H]2CO)nc1` [Example 71, ((S)-8-(4,6-bis(trifluoromethyl)-1H-benzo[d]imidazol-2-yl)-4-(5-vinyl-pyridin-2-yl)-3,4-dihydro-2H-benzo[b][1,4]oxazin-3-yl)-methanol], the IC50 in experiment [1] was 101 to 500 nM.

Regarding `C=Cc1ccc(N2c3cccc(-c4nc5ccc(OC)cc5[nH]4)c3OC[C@@H]2CO)nc1` [Example 72, (S)-(8-(6-methoxy-1H-benzo[d]imidazol-2-yl)-4-(5-vinyl-pyridin-2-yl)-3,4-dihydro-2H-benzo[b][1,4]oxazin-3-yl)methanol], the half-inhibitory concentration (IC50) in experiment [1] fell in the range of 501 to 1000 nM.

Take `C=Cc1ccc(N2c3cccc(-c4nc5ccc(C#N)cc5[nH]4)c3OC[C@@H]2CO)nc1` [Example 73, (S)-2-(3-(hydroxymethyl)-4-(5-vinyl-pyridin-2-yl)-3,4-dihydro-2H-benzo[b][1,4]oxazin-8-yl)-1H-benzo[d]imidazol-6-carbonitrile]: the IC50 in experiment [1] is 101 to 500 nM.

Consider `C=Cc1ccc(N2c3cccc(-c4nc5ccc(C)cc5[nH]4)c3OC[C@@H]2CO)nc1` [Example 74, (S)-(8-(6-methyl-1H-benzo[d]imidazol-2-yl)-4-(5-vinyl-pyridin-2-yl)-3,4-dihydro-2H-benzo[b][1,4]oxazin-3-yl)methanol], for which the IC50 in experiment [1] fell in the range of 101 to 500 nM.

Consider `C=Cc1ccc(N2c3cccc(-c4nc5ccccc5[nH]4)c3OC[C@@H]2CO)nc1` [Example 75, (S)-(8-(1H-benzo[d]imidazol-2-yl)-4-(5-vinyl-pyridin-2-yl)-3,4-dihydro-2H-benzo[b][1,4]oxazin-3-yl)methanol], for which the IC50 in experiment [1] was 101 to 500 nM.

As to `C=Cc1ccc(N2c3cccc(-c4nc5c(C)cccc5[nH]4)c3OC[C@@H]2CO)nc1` [Example 76, (S)-(8-(4-methyl-1H-benzo[d]imidazol-2-yl)-4-(5-vinyl-pyridin-2-yl)-3,4-dihydro-2H-benzo[b][1,4]oxazin-3-yl)methanol], in experiment [1], the IC50 is 20 to 100 nM.

As to `C=Cc1ccc(N2c3cccc(-c4nc5c(C)c(C)ccc5[nH]4)c3OC[C@@H]2CO)nc1` [Example 77, (S)-(8-(4,5-dimethyl-1H-benzo[d]imidazol-2-yl)-4-(5-vinyl-pyridin-2-yl)-3,4-dihydro-2H-benzo[b][1,4]oxazin-3-yl)methanol], the IC50 in experiment [1] lay in the range of 20 to 100 nM.

On to `CCc1ccc(N2c3cccc(-c4nc5ccc(C(C)(C)C)cc5[nH]4)c3OC[C@@H]2CO)nc1` [Example 78, [(S)-8-(6-tert-butyl-1H-benzimidazol-2-yl)-4-(5-ethyl-pyridin-2-yl)-3,4-dihydro-2H-benzo[1,4]oxazin-3-yl]-methanol], for which the IC50 in experiment [1] is 20 to 100 nM.

In the case of `CCc1ccc(N2c3cccc(-c4nc5ccc(C(F)(F)F)cc5[nH]4)c3OC[C@@H]2CO)nc1` [Example 79, [(S)-4-(5-ethyl-pyridin-2-yl)-8-(6-trifluoromethyl-1H-benzimidazol-2-yl)-3,4-dihydro-2H-benzo[1,4]oxazin-3-yl]-methanol], the IC50 in experiment [1] was 20 to 100 nM.

As for `CCc1ccc(N2c3cccc(-c4nc5cc(F)c(F)cc5[nH]4)c3OC[C@@H]2CO)nc1` [Example 83, [(S)-8-(5,6-difluoro-1H-benzimidazol-2-yl)-4-(5-ethyl-pyridin-2-yl)-3,4-dihydro-2H-benzo[1,4]oxazin-3-yl]-methanol], in experiment [1], the IC50 was in the range of 20 to 100 nM.

Regarding `CCc1ccc(N2c3cccc(-c4nc5cc(F)c(Cl)cc5[nH]4)c3OC[C@@H]2CO)nc1` [Example 84, [(S)-8-(6-chloro-5-fluoro-1H-benzimidazol-2-yl)-4-(5-ethyl-pyridin-2-yl)-3,4-dihydro-2H-benzo[1,4]oxazin-3-yl]-methanol], the half-inhibitory concentration (IC50) in experiment [1] fell in the range of 20 to 100 nM.

Turning to `COC[C@H]1COc2c(-c3nc4c(Br)cc(OC(F)(F)F)cc4[nH]3)cccc2N1c1ccc(C)cn1` [Example 105, (S)-8-(4-bromo-6-trifluoromethoxy-1H-benzimidazol-2-yl)-3-methoxymethyl-4-(5-methyl-pyridin-2-yl)-3,4-dihydro-2H-benzo[1,4]oxazine], in experiment [1], the half-maximal inhibitory concentration (IC50) is < 20 nM.

With `COC[C@H]1COc2c(-c3nc4ccc(OC)cc4[nH]3)cccc2N1c1ccc(C)cn1` [Example 106, (S)-8-(6-methoxy-1H-benzo[d]imidazol-2-yl)-3-(methoxymethyl)-4-(5-methyl-pyridin-2-yl)-3,4-dihydro-2H-benzo[b][1,4]oxazine], the half-maximal inhibitory concentration (IC50) in experiment [1] was 101 to 500 nM.

`COC[C@H]1COc2c(-c3nc4c(F)cc(F)cc4[nH]3)cccc2N1c1ccc(C)cn1` [Example 107, (S)-8-(4,6-difluoro-1H-benzo[d]imidazol-2-yl)-3-(methoxymethyl)-4-(5-methyl-pyridin-2-yl)-3,4-dihydro-2H-benzo[b][1,4]oxazine]: the half-inhibitory concentration (IC50) in experiment [1] is 501 to 1000 nM.

Turning to `COC[C@H]1COc2c(-c3nc4c(C)cccc4[nH]3)cccc2N1c1ccc(C)cn1` [Example 108, (S)-3-(methoxymethyl)-8-(4-methyl-1H-benzo[d]imidazol-2-yl)-4-(5-methyl-pyridin-2-yl)-3,4-dihydro-2H-benzo[b][1,4]oxazine], the 50% inhibitory concentration (IC50) in experiment [1] was 101 to 500 nM.

`COC[C@H]1COc2c(-c3nc4cc(C)ccc4[nH]3)cccc2N1c1ccc(C)cn1` [Example 109, (S)-3-(methoxymethyl)-8-(5-methyl-1H-benzo[d]imidazol-2-yl)-4-(5-methyl-pyridin-2-yl)-3,4-dihydro-2H-benzo[b][1,4]oxazine]: the IC50 in experiment [1] fell in the range of 101 to 500 nM.

In the case of `COC[C@H]1COc2c(-c3nc4ccccc4[nH]3)cccc2N1c1ccc(C)cn1` [Example 110, (S)-8-(1H-benzo[d]imidazol-2-yl)-3-(methoxymethyl)-4-(5-methyl-pyridin-2-yl)-3,4-dihydro-2H-benzo[b][1,4]oxazine], the concentration for half-maximal inhibition (IC50) in experiment [1] lay within 101 to 500 nM.

As to “N-(4-tert-butylphenyl)-4-(3-chloropyridin-2-yl)piperazin-1-carboxyamide [BCTC, reference compound]”, in the experiment with ICR male mice, the “% inhibition rate of writhing” value turned out to be 33% and the “I.A. (inhibitory activity), % inhibition rate of writhing” value is recorded as “++ (20˜50%)”.
